Data taken from paper PMC7096398, “Oxytocin Receptors Regulate Social Preference in Zebrafish” (Scientific Reports, 2020).
“Also recorded” adds a separate entry of the source.

How the values were obtained:
Oxtrl = target: T1, Oxtrl (Danio rerio, UniProt E4W698); assay: Inositol phosphate accumulation assay, antagonism of 1 μM zVP at Oxtrl; assay type: cell-based, zebrafish; conditions: stimulated with zVP
T1 construct: host or cells: HEK293
T1 sequence (E4W698 1-382): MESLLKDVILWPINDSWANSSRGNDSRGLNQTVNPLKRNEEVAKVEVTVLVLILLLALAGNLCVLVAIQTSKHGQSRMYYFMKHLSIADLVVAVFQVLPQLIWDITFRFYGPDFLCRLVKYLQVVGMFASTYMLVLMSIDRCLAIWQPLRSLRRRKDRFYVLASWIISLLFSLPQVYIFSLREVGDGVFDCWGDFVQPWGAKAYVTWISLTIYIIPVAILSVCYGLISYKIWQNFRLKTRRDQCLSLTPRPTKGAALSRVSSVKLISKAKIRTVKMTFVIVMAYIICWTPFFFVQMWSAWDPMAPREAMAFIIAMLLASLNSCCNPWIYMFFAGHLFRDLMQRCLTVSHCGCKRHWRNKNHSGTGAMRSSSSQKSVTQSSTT
Procedure: (§1) The receptor constructs were ordered from GeneScript and subcloned into a pcDNA3.1/CT-GFP-TOPO vector. The coding sequences of the GenBank entries NM_001199370.1 (oxtr), NM_001199369.1 (oxtrl), NM_001301114.1 (avpr1aa), and NM_001297676.1 (avpr1ab) were used for synthesis. The stop codons were removed, and an additional […] was added to facilitate hybrid protein expression with GFP in frame from the vector. The GCCACC Kozak sequence was inserted before the start codons. After transformation of the plasmid constructs into TOP10 competent cells (Thermo Fisher Scientific), the Maxiprep (Thermo Fisher Scientific) method was used to amplify the plasmids for transfection.
(§2) The Inositol phosphate accumulation assay was performed according to previous descriptions to measure the potency of different ligands for zebrafish different oxytocin related receptors. Each receptor construct was transfected into HEK293 cells using Lipofectamine 2000 (Thermo Fisher Scientific). Myo2-^3H-inositol (PerkinElmer) at 3 μCi/mL was added the day after transfection. […] Samples were mixed with OptiPhase HiSafe (PerkinElmer Waltham, MA, USA) and ^3H radioactivity was measured with a Tri-Carb 2910TR liquid scintillation counter (PerkinElmer Waltham, MA, USA). […]

adult zebrafish = assay: Shoaling test in adult zebrafish; assay type: in vivo, zebrafish (Danio rerio)
Procedure: Adult and larval behavioural testing was performed between 9 AM and 4 PM. All fish were fed prior to and after experiments, and larvae were also given an additional feed at midday. Adult fish were of a 1:1 sex ratio, and focal fish and stimulus fish were size-matched. Adult fish and shoals were filmed using a web camera and Debut Video Capture Software (NCH Software, Greenwood Village, USA), and videos were analysed using EthoVision version 11 (Noldus, Wageningen, the Netherlands).
The shoaling test was performed to examine the effects of L-368,899 on social group behaviour, a test widely used to assess shoaling sensitivity to various drugs and experimental settings[75],[76].
The experimental setup comprised a 1.8 L trapezoidal tank (height 16 cm × length at the top 26 cm × length at the bottom 23 cm × width 6 cm, Aquaneering, San Diego, USA). Fifty-six zebrafish were randomly grouped into shoals of four (two males and two females) three days prior to the experiment. […] On day four all shoal members were weighed and injected with either fish Ringer’s (n = 6 shoals) or L-368,899 (n = 7 shoals), using the same procedure described above. Shoals were returned to their respective holding tanks for one hour to recover, and then gently transferred to test tanks, in which they were filmed for 15 minutes.
All data for the social preference and novel tank diving experiments in adults were extracted as processed means per minute from EthoVision. For the shoaling experiments, raw data was exported from EthoVision, and then post-processed by an in-house script written in Python 3.4, in order to compute IFD, NND, and FND as described elsewhere. For timelines, repeated measures analysis of variance (RM-ANOVA) was used. For pairwise comparisons of total means between groups, Student’s T-tests were used.

Avpr1ab = target: T2, Avpr1ab (Danio rerio, UniProt A0A8M1P6E3); assay: Inositol phosphate accumulation assay, antagonism of 1 μM zVP at Avpr1ab; assay type: cell-based, zebrafish; conditions: stimulated with agonist; antagonist up to 1 μM
T2 sequence (A0A8M1P6E3 1-410): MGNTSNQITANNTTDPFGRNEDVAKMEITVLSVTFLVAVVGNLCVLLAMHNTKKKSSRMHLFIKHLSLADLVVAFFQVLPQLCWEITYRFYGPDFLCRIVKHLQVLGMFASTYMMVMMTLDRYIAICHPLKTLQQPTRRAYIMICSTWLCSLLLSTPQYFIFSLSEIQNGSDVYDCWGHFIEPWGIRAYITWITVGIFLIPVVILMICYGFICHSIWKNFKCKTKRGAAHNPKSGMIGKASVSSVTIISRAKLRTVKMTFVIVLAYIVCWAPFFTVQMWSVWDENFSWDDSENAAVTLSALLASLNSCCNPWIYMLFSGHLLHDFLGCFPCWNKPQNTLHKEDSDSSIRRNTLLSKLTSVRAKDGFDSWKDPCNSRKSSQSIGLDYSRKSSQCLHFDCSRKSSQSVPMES
Procedure: as §1, §2

[1] = cited from earlier work
rodents = conditions: cited from earlier work
Procedure: Intraperitoneal injections were conducted using a 1 mL U-100 BD MicroFine™ Insulin Syringe (Becton Dickinson France S.A.S., France). Post injection, animals were placed into their holding tanks for one hour to recover. […] Following this, focal fish were individually placed in the middle of the test tank and left ...

In the case of `Cc1ccccc1N1CCN(S(=O)(=O)C[C@]23CC[C@H](C[C@@H]2NC(=O)[C@@H](N)CCS(C)(=O)=O)C3(C)C)CC1` [L-368,899], the “Antagonism at Oxtrl, in words” value (Oxtrl) is reported as “able to block zVP activation; also recorded: specifically inhibited; also recorded: potently antagonised”, the “Shoaling parameters vs vehicle, outlier vehicle shoal included” value (adult zebrafish; IFD, NND, FND, including outlier shoal) is reported as “no significant differences” and the “Social behaviour: Nearest neighbour distance” value (adult zebrafish; adult shoaling, shoals of four, 100 µg per gram fish i.p., 1 h before 15 min test, mean ± SEM, n = 7 shoals, vehicle 3.3 ± 0.2) is reported as 3.7 ± 0.1 cm. For the same molecule, the “Social behaviour: Interfish distance” value (adult zebrafish; adult shoaling, shoals of four, 100 µg per gram fish i.p., 1 h before 15 min test, mean ± SEM, n = 7 shoals, vehicle 5.9 ± 0.3) was 6.7 ± 0.2 cm, the “Social behaviour: Furthest neighbour distance” value (adult zebrafish; adult shoaling, shoals of four, 100 µg per gram fish i.p., 1 h before 15 min test, mean ± SEM, n = 7 shoals, vehicle 8.7 ± 0.5) was 9.8 ± 0.2 cm and the “Locomotion: Velocity” value (adult zebrafish; adult shoaling, shoals of four, 100 µg per gram fish i.p., 1 h before 15 min test, mean ± SEM, vehicle 3.6 ± 0.2, p = 0.30) was 3.2 ± 0.3 cm/s. The “Locomotion: Distance” value (adult zebrafish; adult shoaling, shoals of four, 100 µg per gram fish i.p., 1 h before 15 min test, mean ± SEM, vehicle 207 ± 15, p = 0.37) was 186 ± 17 cm/min, the “Shoaling, in words” value (adult zebrafish; adult zebrafish) was “potentially also shoaling behaviour; also recorded: tentative and small effect” and the “Activity parameters vs vehicle, shoaling test” value (adult zebrafish; average distance p = 0.37, average velocity p = 0.30) was “no significant differences”. For the same molecule, the “Inter-fish distance (IFD) vs vehicle, outlier excluded” value (adult zebrafish; t(10) = 2.276, p = 0.046) was “significantly more spread out”, the “Nearest neighbour distance (NND) vs vehicle, outlier excluded” value (adult zebrafish; t(10) = 2.324, p = 0.042) was “significantly more spread out” and the “Antagonism at Avpr1ab, in words” value (Avpr1ab) was “did not block the response and not and without reducing the effect of the peptide agonist”. The half-life [1] was “about 2 hours” and the “Behavioural effects one hour after treatment” value (rodents) was “robust behavioural effects”.
